# Test results: publication PMC9291647, “Discovery of novel mRNA demethylase FTO inhibitors against esophageal cancer” (Journal of Enzyme Inhibition and Medicinal Chemistry, 2022)
# Biological target: fat mass and obesity-associated protein (FTO) (Homo sapiens, UniProt Q9C0B1)
# Assay: FTO demethylase assay with ssRNA substrate, nucleosides detected by LC/MS
# Format: biochemical
# Chain of fat mass and obesity-associated protein (FTO) (Q9C0B1 whole entry): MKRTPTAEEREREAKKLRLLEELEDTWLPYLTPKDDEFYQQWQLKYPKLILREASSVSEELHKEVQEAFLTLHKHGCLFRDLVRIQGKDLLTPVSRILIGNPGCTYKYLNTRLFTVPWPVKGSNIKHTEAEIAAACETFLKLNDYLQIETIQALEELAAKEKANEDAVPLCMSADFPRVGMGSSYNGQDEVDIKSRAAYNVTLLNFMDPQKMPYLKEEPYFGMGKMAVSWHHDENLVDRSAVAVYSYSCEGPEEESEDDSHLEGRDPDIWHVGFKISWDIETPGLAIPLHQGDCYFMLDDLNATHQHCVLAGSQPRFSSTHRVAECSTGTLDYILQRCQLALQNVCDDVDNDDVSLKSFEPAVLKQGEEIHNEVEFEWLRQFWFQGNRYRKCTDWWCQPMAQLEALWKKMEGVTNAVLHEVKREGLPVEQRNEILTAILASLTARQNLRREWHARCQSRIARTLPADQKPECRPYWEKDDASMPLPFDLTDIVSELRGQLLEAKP
row,IC50,Structure (SMILES)
1,0.78 µM,"COc1c(C)cnc(Cn2cc(CNC(=O)c3c(F)c(F)c(F)c(F)c3F)nn2)c1C [C6, 2,3,4,5,6-Pentafluoro-N-((1-((4-methoxy-3,5-dimethylpyridin-2-yl)methyl)-1H-1,2,3-triazol-4-yl)methyl)benzamide]"
2,8.67 µM,"O=C(NCc1cn(Cc2nc3ccccc3[nH]2)nn1)c1c(F)c(F)c(F)c(F)c1F [C8, N-((1-((1H-benzo[d]imidazol-2-yl)methyl)-1H-1,2,3-triazol-4-yl)methyl)-2,3,4,5,6-pentafluorobenzamide]"
